Laboratory results from patent EP0595557A1, “New substituted azetidinones as anti-inflammatory and antidegenerative agents” (MERCK & CO. INC., priority 1992, dated 1994).

biological target: T1, Human Polymorphonuclear Leukocyte Elastase (Homo sapiens, UniProt P08246); assay: Enzyme assay for inhibition of human polymorphonuclear leukocyte elastase via hydrolysis of Boc-AAPAN or Boc-AAPVN; type: biochemical; conditions: pH 7.5, second order rate constant for inactivation of the enzyme, expressed to the nearest thousand, read-out: Kobs/[I]
T1 construct: Crude extract of human polymorphonuclear leukocytes (PMN) containing elastase activity; from tissue; host or cells: human polymorphonuclear leukocytes (crude extract)
T1 sequence (P08246 30-267): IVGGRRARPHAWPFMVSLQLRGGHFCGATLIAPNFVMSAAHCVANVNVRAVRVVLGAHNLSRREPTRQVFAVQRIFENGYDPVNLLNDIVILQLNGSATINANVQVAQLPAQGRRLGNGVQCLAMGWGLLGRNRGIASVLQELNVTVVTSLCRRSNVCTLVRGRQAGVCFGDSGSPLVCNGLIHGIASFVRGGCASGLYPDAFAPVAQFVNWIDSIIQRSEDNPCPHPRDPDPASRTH
In short: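 Crude human PMN extract as enzyme source, with 0.2 mM Boc-AAPAN in 0.05M TES buffer pH 7.5. Inhibitors in DMSO were added to substrate before the extract, and rate was followed as ΔOD/min at 410 mµ. Values are kobs/I, the second-order inactivation rate constant (per mole per second).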

Structure (SMILES)	kinact/KI
CCCCNC(=O)c1ccc(OC2N(C(=O)NC(CCC)c3ccc(C)cc3)C(=O)C2(CC)CC)cc1 (centres unmarked) [Compound 201]	2.46e+06 M⁻¹ s⁻¹
CCC[C@@H](NC(=O)N1C(=O)C(CC)(CC)[C@@H]1Oc1ccc(C(=O)N(C)CCN(C)C(=NC#N)Nc2ccccc2)cc1)c1ccc(C)cc1 [Compound 202]	1.76e+06 M⁻¹ s⁻¹
CCC[C@@H](NC(=O)N1C(=O)C(CC)(CC)[C@@H]1Oc1ccc(C(=O)N(C)CCN(C)Cc2cccc(F)c2)cc1)c1ccc(C)cc1 [Compound 203]	1.26e+06 M⁻¹ s⁻¹
CCC[C@@H](NC(=O)N1C(=O)C(CC)(CC)[C@@H]1Oc1ccc(C(=O)N(C)CCN(C)Cc2ccccc2Cl)cc1)c1ccc(C)cc1 [Compound 204]	1.59e+06 M⁻¹ s⁻¹
CCC[C@@H](NC(=O)N1C(=O)C(CC)(CC)[C@@H]1Oc1ccc(C(=O)N(C)CCN(C)Cc2cccc(OC)c2)cc1)c1ccc(C)cc1 [Compound 205]	1.91e+06 M⁻¹ s⁻¹
CCC[C@@H](NC(=O)N1C(=O)C(CC)(CC)[C@@H]1Oc1ccc(C(=O)N(C)CCN(C)Cc2cc(OC)cc(OC)c2)cc1)c1ccc(C)cc1 [Compound 206]	1.74e+06 M⁻¹ s⁻¹
CCC[C@@H](NC(=O)N1C(=O)C(CC)(CC)[C@@H]1Oc1ccc(C(=O)N2CCc3cc(OC)c(OC)cc3C2)cc1)c1ccc(C)cc1 [Compound 207]	2.7e+06 M⁻¹ s⁻¹
CCC[C@@H](NC(=O)N1C(=O)C(CC)(CC)[C@@H]1Oc1ccc(C(=O)N(C)C2CCN(Cc3ccccc3)CC2)cc1)c1ccc(C)cc1 [Compound 208]	1.95e+06 M⁻¹ s⁻¹
CCC[C@@H](NC(=O)N1C(=O)C(CC)(CC)[C@@H]1Oc1ccc(C(=O)NCCCC[C@H](N)C(=O)O)cc1)c1ccc(C)cc1 [Compound 209]	929000 M⁻¹ s⁻¹
CCC[C@@H](NC(=O)N1C(=O)C(CC)(CC)[C@@H]1Oc1ccc(C(=O)N(C)CCN(C)C2C3CC4CC(C3)CC2C4)cc1)c1ccc(C)cc1 (some centres unmarked) [Compound 210]	2.13e+06 M⁻¹ s⁻¹
CCC[C@@H](NC(=O)N1C(=O)C(CC)(CC)[C@@H]1Oc1ccc(C(=O)N(C)C2CCNCC2)cc1)c1ccc(C)cc1 [Compound 211]	85000 M⁻¹ s⁻¹
CCC[C@@H](NC(=O)N1C(=O)C(CC)(CC)[C@@H]1Oc1ccc(C(=O)N2CC3CC2CN3C)cc1)c1ccc(C)cc1 (some centres unmarked) [Compound 212]	860000 M⁻¹ s⁻¹
CCC[C@@H](NC(=O)N1C(=O)C(CC)(CC)[C@@H]1Oc1ccc(C(=O)N(C)CC(=O)O)cc1)c1ccc(C)cc1 [Compound 213]	984000 M⁻¹ s⁻¹
CCC[C@@H](NC(=O)N1C(=O)C(CC)(CC)[C@@H]1Oc1ccc(C(=O)N(C)CCCN(C)CC)cc1)c1ccc(C)cc1 [Compound 214]	1.1e+06 M⁻¹ s⁻¹
CCC[C@@H](NC(=O)N1C(=O)C(CC)(CC)[C@@H]1Oc1ccc(C(=O)N(C)C2CCN(C)CC2)cc1)c1ccc(C)cc1 [Compound 215]	1.28e+06 M⁻¹ s⁻¹
CCC[C@@H](NC(=O)N1C(=O)C(CC)(CC)[C@@H]1Oc1ccc(C(=O)N(C)C2CCN(CCC)CC2)cc1)c1ccc(C)cc1 [Compound 216]	1.31e+06 M⁻¹ s⁻¹
CCC[C@@H](NC(=O)N1C(=O)C(CC)(CC)[C@@H]1Oc1ccc(C(=O)N(C)C2CCN(CC)CC2)cc1)c1ccc(C)cc1 [Compound 217]	1.42e+06 M⁻¹ s⁻¹
CCC[C@@H](NC(=O)N1C(=O)C(CC)(CC)[C@@H]1Oc1ccc(C(=O)N(C)CC(C)N(C)Cc2ccccc2)cc1)c1ccc(C)cc1 (some centres unmarked) [Compound 218]	2.12e+06 M⁻¹ s⁻¹
CCC[C@@H](NC(=O)N1C(=O)C(CC)(CC)[C@@H]1Oc1ccc(C(=O)N(C)CC(C)N(C)C)cc1)c1ccc(C)cc1 (some centres unmarked) [Compound 219]	1.59e+06 M⁻¹ s⁻¹
CCC[C@@H](NC(=O)N1C(=O)C(CC)(CC)[C@@H]1Oc1ccc(C(=O)N(C)CCN(C)C2CC3CCC2C3)cc1)c1ccc(C)cc1 (some centres unmarked) [Compound 220]	1.87e+06 M⁻¹ s⁻¹
CCC[C@@H](NC(=O)N1C(=O)C(CC)(CC)[C@@H]1Oc1ccc(C(=O)N(C)CCNC2C3CC4CC(C3)CC2C4)cc1)c1ccc(C)cc1 (some centres unmarked) [Compound 221]	3.01e+06 M⁻¹ s⁻¹
CCC[C@@H](NC(=O)N1C(=O)C(CC)(CC)[C@@H]1Oc1ccc(C(=O)N(C)CCN(C)C2CCC3CC2C3(C)C)cc1)c1ccc(C)cc1 (some centres unmarked) [Compound 222]	2.29e+06 M⁻¹ s⁻¹
CCC[C@@H](NC(=O)N1C(=O)C(CC)(CC)[C@@H]1Oc1ccc(C(=O)N(C)CCN(C)C2CCC3CCC2C3)cc1)c1ccc(C)cc1 (some centres unmarked) [Compound 223]	2.58e+06 M⁻¹ s⁻¹
